Assay results: patent publication US20100316529A1, “Anti-Microbial Systems and Methods” (priority 2001, published 2010)
Values joined by “and” are separate entries in the source; they are usually repeats but may differ in a detail not shown here. Identical values can stand only once.

Legend:
Assay type in all cases: cell-based
E. coli = experiment: EDTA salt dilution test, MIC/MBC; conditions: three entries, Exhibit A1
Method: (§1) Protocol one: Broth dilutions:
(§2) Inoculate a 25 ml nutrient broth (Oxoid No2) in a sterile universal container with one of the following organisms; Pseudomonas aeruginosa, Proteus Mirabilis, E. coli, Klebsiella pneumoniae, Staph aureus, Coagulase negative staphylococci, Enterococcus faecalis or MRSA.
(§3) Incubate the broth at 37° C. overnight.
(§4) To make these concentrations put the EDTA needed for 10 mLs in only 9 mLs of broth in sterile universal containers, as this will be diluted further when the organisms are added.
(§5) Dilute the overnight broth cultures to 10^7 organisms/mL using more sterile nutrient broth.
(§6) Add 1 mL of this diluent to each of the EDTA series broths. This gives a final concentration of 10^6 organism/mL in the EDTA broths.
(§7) Incubate for 18 hours at 37° C.
(§8) Next day visually read the MIC's by observing the turbidity of the broths.
(§9) Plate out 1 uL of each dilution onto fresh blood agar plate and spread using a sterile plastic spreader.
(§10) Incubate overnight at 37° C.
(§11) Next day read the MBC's by performing colony counts.

Ent. faecalis = experiment: EDTA salt dilution test, MIC/MBC
Method: as §1, §2, §3, §4, §5, §6, §7, §8, §9, §10, §11

Kleb. pnemoniae = experiment: EDTA salt dilution test, MIC/MBC; conditions: two entries, Exhibit A1
Method: as §1, §2, §3, §4, §5, §6, §7, §8, §9, §10, §11

MRSA = experiment: EDTA salt dilution test, MIC/MBC; conditions: five entries, Exhibit A2
Method: as §1, §2, §3, §4, §5, §6, §7, §8, §9, §10, §11

Proteus mirabilis = experiment: EDTA salt dilution test, MIC/MBC; conditions: two entries
Method: as §1, §2, §3, §4, §5, §6, §7, §8, §9, §10, §11

Pseudomonas aeruginosa = experiment: EDTA salt dilution test, MIC/MBC; conditions: two entries
Method: as §1, §2, §3, §4, §5, §6, §7, §8, §9, §10, §11

Pseudomonas sp. = experiment: EDTA salt dilution test, MIC/MBC
Method: as §1, §2, §3, §4, §5, §6, §7, §8, §9, §10, §11

S. aureus = experiment: EDTA salt dilution test, MIC/MBC; conditions: five entries, Exhibit A2
Method: as §1, §2, §3, §4, §5, §6, §7, §8, §9, §10, §11

S. capitis = experiment: EDTA salt dilution test, MIC/MBC; conditions: two entries
Method: as §1, §2, §3, §4, §5, §6, §7, §8, §9, §10, §11

S. epidermidis = experiment: EDTA salt dilution test, MIC/MBC; conditions: two entries
Method: as §1, §2, §3, §4, §5, §6, §7, §8, §9, §10, §11

S. lentus = experiment: EDTA salt dilution test, MIC/MBC
Method: as §1, §2, §3, §4, §5, §6, §7, §8, §9, §10, §11

S. simulans = experiment: EDTA salt dilution test, MIC/MBC
Method: as §1, §2, §3, §4, §5, §6, §7, §8, §9, §10, §11

S. xylosus = experiment: EDTA salt dilution test, MIC/MBC
Method: as §1, §2, §3, §4, §5, §6, §7, §8, §9, §10, §11

VRE = experiment: EDTA salt dilution test, MIC/MBC; conditions: two entries
Method: as §1, §2, §3, §4, §5, §6, §7, §8, §9, §10, §11

Ent. faeculm = experiment: EDTA salt dilution test, MIC/MBC
Kleb. oxytoca = experiment: EDTA salt dilution test, MIC/MBC
Kleb. ornitholytica = experiment: EDTA salt dilution test, MIC/MBC
Ent. cloacae = experiment: EDTA salt dilution test, MIC/MBC; conditions: three entries, Exhibit A1
Steno. maltophilia = experiment: EDTA salt dilution test, MIC/MBC
Cornyeform amycolatum = experiment: EDTA salt dilution test, MIC/MBC
Coryneform strait/amy = experiment: EDTA salt dilution test, MIC/MBC
Acinetobacter baumanii = experiment: EDTA salt dilution test, MIC/MBC; conditions: two entries, Exhibit A2
Proteus vulgaris = experiment: EDTA salt dilution test, MIC/MBC
C. lucitaniae = experiment: EDTA agar dilution method, yeasts, MIC/MBC; conditions: Exhibit C
Text: (§12) Protocol 3: Agar dilutions.
Do this until all the media is used up.

C. albicans = experiment: EDTA agar dilution method, yeasts, MIC/MBC; conditions: three entries, Exhibit C
Method: (§13) The bactericidal effects were measured as the Minimum Bactericidal Concentration (MBC), while the inhibitory effects were measured as the Minimum Inhibitory Concentration (MIC). In each case, the concentration was measured as milligrams of the disinfectant salt per milliliter of water (mg/ml).
as §12
(§14) Prepare nutrient agar plates with increasing concentrations of EDTA, 0, 0.5, 1, 1.5, 2, 4, 6, 8, 10, 15, 20, 25, 30 mg/mL, using the following method. • Pour 300 mL distilled water into a sterile glass bottle. • Add the appropriate amount of EDTA. This is the concentration desired ×300, in grams. • Once the EDTA has fully dissolved, add 8.4 g of Nutrient agar powder (Oxoid). Mix thoroughly. • Do this for each concentration of EDTA required. […] Do this until all the media is used up. Label the plates with the concentration of EDTA they contain. • These plates can then be stored, until they are needed, in a 4° C. fridge. • Use an automatic plate inoculator to inoculate each plate with 21 organisms.

C. glabrata = experiment: EDTA agar dilution method, yeasts, MIC/MBC; conditions: two entries, Exhibit C
Method: as §13, §12, §14

C. guilliermondii = experiment: EDTA agar dilution method, yeasts, MIC/MBC; conditions: Exhibit C
Method: as §13, §12, §14

C. parapsilosis = experiment: EDTA agar dilution method, yeasts, MIC/MBC; conditions: Exhibit C
Method: as §13, §12, §14

C. tropicalis = experiment: EDTA agar dilution method, yeasts, MIC/MBC; conditions: Exhibit C
Method: as §13, §12, §14

variety of microbes = experiment: Efficacy of disinfectant salts of EDTA against a number of microbes; conditions: general statement
Method: The Applicant has tested the efficacy of a number of disinfectant salts of EDTA against a number of microbes.
as §1, §2, §3
Next day make up a series of nutrient broths containing a dilution of the appropriate EDTA as in the following list; 0 mg/mL, 0.25 mg/mL, 0.5 mg/mL, 1.0 mg/mL, 1.5 mg/mL, 2.0 mg/mL, 4.0 mg/mL, 6.0 mg/mL, 8.0 mg/mL, 10 mg/mL, 15 mg/mL, 20 mg/mL, 25 mg/mL, 30 mg/ml, 40 mg/mL, 50 mg/mL, 60 mg/mL, 70 mg/mL, 80 mg/mL, 90 mg/mL, 100 mg/mL.
as §4, §5, §6, §7
Next day visually read the MIC's by observing the turbidity of the broths. […]
as §11

**Q.** For `N.N.O=C(O)CN(CCN(CC(=O)O)CC(=O)O)CC(=O)O` [Diammonium EDTA], which “MBC, minimum concentration required to kill an entire population” value (“MBC, minimum concentration required” for short) (E. coli) is on record?
**A.** >10000 µg/mL

**Q.** And the “MBC, minimum concentration required” value (Ent. faecalis; Exhibit A1)?
**A.** 15000 µg/mL

**Q.** And the “MIC, minimum concentration required to inhibit growth” value (“MIC … to inhibit growth” below) (Ent. faecalis; Exhibit A2)?
**A.** 1000 µg/mL

**Q.** And the “MBC, minimum concentration required” value (Kleb. pnemoniae)?
**A.** >10000 µg/mL

**Q.** And the “MIC … to inhibit growth” value (MRSA)?
**A.** 1000 µg/mL

**Q.** What about the “MBC, minimum concentration required” value (Proteus mirabilis; Exhibit A1) of the same compound?
**A.** >10000 µg/mL

**Q.** What about the “MIC … to inhibit growth” value (Proteus mirabilis; Exhibit A2) of the same compound?
**A.** <500 µg/mL

**Q.** And the “MBC, minimum concentration required” value (Pseudomonas aeruginosa; Exhibit A1)?
**A.** >10000 µg/mL

**Q.** And the “MIC … to inhibit growth” value (Pseudomonas aeruginosa; Exhibit A2)?
**A.** 1000 µg/mL

**Q.** What about the “MBC, minimum concentration required” value (Pseudomonas sp.; Exhibit A1) of the same compound?
**A.** >10000 µg/mL

**Q.** What about the “MIC … to inhibit growth” value (Pseudomonas sp.; Exhibit A2) of the same compound?
**A.** <500 µg/mL

**Q.** What about the “MIC … to inhibit growth” value (S. aureus) of the same compound?
**A.** 1000 µg/mL

**Q.** What about the “MBC, minimum concentration required” value (S. capitis; Exhibit A1) of the same compound?
**A.** 10000 µg/mL and 8000 µg/mL

**Q.** And the “MIC … to inhibit growth” value (S. capitis; Exhibit A2)?
**A.** <500 µg/mL

**Q.** What about the “MBC, minimum concentration required” value (S. epidermidis; Exhibit A1) of the same compound?
**A.** 4000 µg/mL and 8000 µg/mL

**Q.** What about the “MIC … to inhibit growth” value (S. epidermidis; Exhibit A2) of the same compound?
**A.** <500 µg/mL

**Q.** What about the “MBC, minimum concentration required” value (S. lentus; Exhibit A1) of the same compound?
**A.** 10000 µg/mL

**Q.** And the “MIC … to inhibit growth” value (S. lentus; Exhibit A2)?
**A.** <500 µg/mL

**Q.** And the “MBC, minimum concentration required” value (S. simulans; Exhibit A1)?
**A.** 10000 µg/mL

**Q.** What about the “MIC … to inhibit growth” value (S. simulans; Exhibit A2) of the same compound?
**A.** <500 µg/mL

**Q.** And the “MBC, minimum concentration required” value (S. xylosus; Exhibit A1)?
**A.** 4000 µg/mL

**Q.** What about the “MIC … to inhibit growth” value (S. xylosus; Exhibit A2) of the same compound?
**A.** <500 µg/mL

**Q.** What about the “MBC, minimum concentration required” value (VRE; Exhibit A1) of the same compound?
**A.** 15000 µg/mL and >15000 µg/mL

**Q.** And the “MIC … to inhibit growth” value (VRE; Exhibit A2)?
**A.** <500 µg/mL and 1000 µg/mL

**Q.** What about the “MIC … to inhibit growth” value (Ent. faeculm; Ent. faecuim, Exhibit A2) of the same compound?
**A.** <500 µg/mL

**Q.** What about the “MBC, minimum concentration required” value (Ent. faeculm; Ent. faeculm, Exhibit A1) of the same compound?
**A.** 15000 µg/mL

**Q.** And the “MBC, minimum concentration required” value (Kleb. oxytoca; Exhibit A1)?
**A.** >10000 µg/mL

**Q.** And the “MIC … to inhibit growth” value (Kleb. oxytoca; Exhibit A2)?
**A.** 1000 µg/mL

**Q.** And the “MBC, minimum concentration required” value (Kleb. ornitholytica; Exhibit A1)?
**A.** >10000 µg/mL

**Q.** And the “MIC … to inhibit growth” value (Kleb. ornitholytica; Exhibit A2)?
**A.** 1000 µg/mL

**Q.** What about the “MBC, minimum concentration required” value (Ent. cloacae) of the same compound?
**A.** >10000 µg/mL

**Q.** What about the “MBC, minimum concentration required” value (Steno. maltophilia; Exhibit A1) of the same compound?
**A.** >10000 µg/mL

**Q.** And the “MIC … to inhibit growth” value (Steno. maltophilia; Exhibit A2)?
**A.** 1000 µg/mL

**Q.** What about the “MBC, minimum concentration required” value (Cornyeform amycolatum; Exhibit A1) of the same compound?
**A.** 1000 µg/mL

**Q.** What about the “MIC … to inhibit growth” value (Cornyeform amycolatum; Exhibit A2) of the same compound?
**A.** <500 µg/mL

**Q.** What about the “MBC, minimum concentration required” value (Coryneform strait/amy; Exhibit A1) of the same compound?
**A.** 1000 µg/mL

**Q.** And the “MIC … to inhibit growth” value (Coryneform strait/amy; Exhibit A2)?
**A.** <500 µg/mL

**Q.** And the “MIC … to inhibit growth” value (Acinetobacter baumanii)?
**A.** <500 µg/mL

**Q.** What about the “MBC, minimum concentration required” value (Proteus vulgaris; Exhibit A1) of the same compound?
**A.** >10000 µg/mL

**Q.** What about the “MIC … to inhibit growth” value (Proteus vulgaris; Exhibit A2) of the same compound?
**A.** <500 µg/mL

**Q.** What about the “MIC's, Minimum Inhibitory Concentration” value (C. lucitaniae) of the same compound?
**A.** 500 µg/mL

**Q.** What about the “MIC's, Minimum Inhibitory Concentration” value (C. albicans) of the same compound?
**A.** 500 µg/mL

**Q.** And the “MIC's, Minimum Inhibitory Concentration” value (C. glabrata)?
**A.** 500 µg/mL

**Q.** And the “MIC's, Minimum Inhibitory Concentration” value (C. guilliermondii)?
**A.** 500 µg/mL

**Q.** And the “MIC's, Minimum Inhibitory Concentration” value (C. parapsilosis)?
**A.** 500 µg/mL

**Q.** And the “MIC's, Minimum Inhibitory Concentration” value (C. tropicalis)?
**A.** 1000 µg/mL

**Q.** What about the “anti-microbial (antifungal and antibacterial) properties compared with the disodium salt” value (variety of microbes) of the same compound?
**A.** superior to disodium EDTA
